What was measured:
[1] = target: T1, 5-HT1A receptors (Rattus norvegicus, UniProt P19327); assay: Body temperature (hypothermia), agonist and antagonist activity; type: in vivo, male Wistar rats; design: from tissue; host or cells: whole animal, male Wistar rat (in vivo); conditions: for Hypothermia M.E.D.: agonist: induction of hypothermia, s.c., minimum effective dose; for ED50: rat, sc, 1 h, antagonist: inhibition of hypothermia induced by 8-OH-DPAT 0.16 mg/kg s.c., compound s.c. 60 min before test, read-out: Hypothermia ID50 (95% C.L.)
T1 sequence (P19327 1-422): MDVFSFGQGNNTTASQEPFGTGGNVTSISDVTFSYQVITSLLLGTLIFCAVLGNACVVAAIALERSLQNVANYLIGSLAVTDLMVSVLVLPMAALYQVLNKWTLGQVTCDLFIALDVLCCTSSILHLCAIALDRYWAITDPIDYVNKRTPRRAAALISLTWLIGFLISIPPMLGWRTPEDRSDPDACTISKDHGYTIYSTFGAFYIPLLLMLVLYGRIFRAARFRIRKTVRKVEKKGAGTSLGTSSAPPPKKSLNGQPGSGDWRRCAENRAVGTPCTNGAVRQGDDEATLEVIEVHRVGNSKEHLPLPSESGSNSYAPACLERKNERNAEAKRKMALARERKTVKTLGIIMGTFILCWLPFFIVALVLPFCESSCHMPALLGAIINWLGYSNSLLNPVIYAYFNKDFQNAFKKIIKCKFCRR
Procedure: (§1) The tests were carried out on male Wistar rats weighing from 200 to 220 g which had free access to food and drinking water, in standard cages.
(§2) The animals are housed individually for the hypothermia, corticosterone secretion and flat body posture tests, and in groups of three for the tail flick test.
(§3) The laboratory temperature is kept at 21°±1° C., with 60 ±5% humidity. The rats are subjected to a light/dark cycle of 12 hours/12 hours (the light cycle commencing at 7.30 a.m.).
(§4) a/ General procedure for tests of agonist and antagonist activities on 5-HT1A receptors.
(§5) The test compounds were administered subcutaneously (s.c.) 60 minutes before the start of the test, that is to say 30 minutes before the vehicle (agonist responses) or 8-OH-DPAT (antagonist responses).
(§6) In all the tests, the solvent is used in parallel as the control. The animals were allowed to rest in their cages during the time between the injections and evaluation.
(§7) For the agonist studies, the solvent was administered at a dose of 1 ml/kg s.c. 30 minutes before the start of the test. For the antagonist studies, doses of 8-OH-DPAT inducing sub-maximal responses were chosen, i.e. doses of 0.63, 0.16, 0.16 and 0.16 mg/kg s.c. for the tail flick test, the flat body posture test, the corticosterone secretion test and the hypothermia test, respectively.
The rats are immobilised and a lubricated digital thermometer (Thermistoprobe from Testotherm, Basle, Switzerland) is inserted into the rectum to a depth of 5 cm. 30 seconds after insertion, the temperature is read off a digital scale. The percentage inhibition is calculated with the aid of the formula mentioned above.
(§8) In general, after variance analysis, the results are subjected to Dunnett's test. Results are regarded as significant if p<0.05.
(§9) The doses of the test compounds are all expressed in terms of the base. Unless otherwise mentioned, all the compounds were dissolved in sterile water (to which a few drops of lactic acid are added, if necessary) and administered at a volume of 1 ml/kg s.c..

[2] = target: T1, 5-HT1A receptors; assay: Spontaneous tail flick test (STF), agonist and antagonist activity; type: in vivo, male Wistar rats; design: from tissue; host or cells: whole animal, male Wistar rat (in vivo); conditions: for Spontaneous tail flicks M.E.D.: agonist: induction of STF, s.c., minimum effective dose; for ED50: rat, sc, 1 h, antagonist: inhibition of STF induced by 8-OH-DPAT 0.63 mg/kg s.c., compound s.c. 60 min before test, read-out: Spontaneous tail flicks ID50 (95% C.L.)
Procedure: as §1, §2, §3, §4, §5, §6, §7
Tail flicks were determined in animals restrained in horizontal, opaque plastics cylinders, the animals' tails hanging freely over the edge of the laboratory bench. After a 5-minute adaptation period, the number of movements made in 5 minutes is recorded. One STF is defined as the raising of the tail to a level higher than the level of the body axis [Millan M. J. et al., J. Pharmacol. Exp. Ther., 256, 973-982 (1990)].
as §8, §9

[3] = target: T1, 5-HT1A receptors; assay: Overall agonist/antagonist behaviour at 5-HT1A receptors (in vivo tests); design: from tissue; host or cells: whole animal, male Wistar rat (in vivo); species or system male Wistar rats; conditions: conclusion from Tables 1 and 2
Procedure: as §4, §5, §6, §7

[4] = target: T1, 5-HT1A receptors; assay: Flat body posture (FBP), agonist response and antagonism of 8-OH-DPAT; type: in vivo, male Wistar rats; design: from tissue; host or cells: whole animal, male Wistar rat (in vivo); conditions: sc
Procedure: as §1, §2, §3, §4, §5, §6, §7
(§10) The same animals were employed for the evaluation of the effect of the test compounds on the FBP and for the determination of the plasma levels of CS. All the tests were carried out in the morning between 10.30 and 12.30, i.e. when the cicardian levels of CS are at their lowest.
25 minutes after the treatment (i.e. 5 minutes before decapitation), the animals are observed in their cages and the presence or absence of FBP is noted.
(§11) The presence of FBP is defined by a characteristic posture of the animal. The animal is then in a position of ventral decubitus with the hind limbs clearly in extension. 5 minutes after observation of FBP, the animals are decapitated and the trunk blood is collected in chilled tubes containing 50 μl of a 10% EDTA solution. After centrifugation at 4000 rpm, the plasma is removed and stored at -30° C. until assay.
as §8
For the dose-response for induction and inhibition of FBP, the effective doses 50 (ED50) (doses at which 50% of the animals show a response) were calculated by the method of Litchfield and Wilcoxon.
as §9

[5] = target: T1, 5-HT1A receptors; assay: Corticosterone secretion (CS), plasma, agonist and antagonist activity; type: in vivo, male Wistar rats; design: from tissue; host or cells: whole animal, male Wistar rat (in vivo); conditions: for Corticosterone secretion M.E.D.: agonist: induction of CS, s.c., minimum effective dose; for ED50: rat, sc, 1 h, antagonist: inhibition of CS induced by 8-OH-DPAT 0.16 mg/kg s.c., compound s.c. 60 min before test, read-out: Corticosterone secretion ID50 (95% C.L.)
Procedure: as §1, §2, §3, §4, §5, §6, §7, §10, §11
CS was determined using a radio-competitive assay for a CS-binding protein in plasma: transcortin. The latter is obtained from monkey serum. Separation of the CS-transcortin complexes from free CS was effected by means of a solution of dextran and active charcoal. The detection limit was 50 pg/tube. Intra- and inter-assay variations were 5 and 15%, respectively [cf. Rivet J. M. et al., Eur. J. Pharmacol., 183, 634-635 (1990)].
Since the base levels of CS in plasma are never zero, the following formula was used to calculate the percentage inhibition of plasmatic CS induced by 8-OH-DPAT: [formula]
as §8, §9

[6] = target: T1, 5-HT1A receptors; assay: In vitro binding test, 5-HT1A receptors, [3]H-8-OH-DPAT, rat hippocampus membranes; design: Hippocampus from the brains of decapitated rats; from tissue; host or cells: rat hippocampus membranes (male Wistar); species or system rat (male Wistar); conditions: hot ligand [3]H-8-OH-DPAT 0.4 nM; rat hippocampus membranes; 25° C., 30 minutes
Procedure: Hippocampus from the brains of decapitated rats was immediately frozen on dry ice and then stored at -80° C. until preparation of membranes. The tissue was homogenised at 4° C. in the appropriate buffer using a Polytron (Brinkman Instruments - Lucerne - Switzerland) and centrifuged at 20,000 rpm.
Incubation was carried out at 25° C. for 30 minutes. Non-specific binding was defined by 10 μM of 5-HT. The tests were terminated by rapid filtration by means of a Brandel harvester over glass-fibre filters pretreated with 0.1% polyethyleneimine.
The inhibitory concentration 50 values (IC50) were determined according to method 8 of Tallarida R. J. and Murray R. B., Manual of pharmacological calculations with computer programs, Springer Verlag, N.Y. (1987).
The pKi was calculated according to the formula [formula] where [L] is the concentration of the hot ligand ([3]H-8-OH-DPAT, 0.4 nM) and Kd is the apparent dissociation constant determined from saturation experiments.
The test substances were dissolved in the incubation buffer.

[7] = 1 h, read-out: Flat body posture ED50 (95% C.L.), antagonism of 8-OH-DPAT, inhibition of FBP, 8-OH-DPAT 0.16 mg/kg s.c., compound s.c. 60 min before test
[8] = induction of FBP, s.c., dose at which 50% of the animals show a response, read-out: Flat body posture ED50 (95% C.L.), agonist response

Q: Which “Hypothermia M.E.D.” value [1] does the source give for O=C1CC2(CCCC2)CC(=O)N1CCCCN1CCN(c2ncccn2)CC1 [buspirone, reference compound] here?
A: Its value is 2.5 mg/kg.

Q: And the “Spontaneous tail flicks M.E.D.” value [2]?
A: The value was > 10.0 mg/kg.

Q: What about the ED50 [2] of the same molecule?
A: Its ED50 is 3.71 mg/kg.

Q: What about the “Behaviour towards 5-HT1A receptors” value [3] of the same molecule?
A: Its value is “agonist behaviour”.

Q: What about the ED50 [4, 7] of the same molecule?
A: The ED50 was > 10 mg/kg.

Q: And the ED50 [4, 8]?
A: Its ED50 is 7.4 mg/kg.

Q: What about the “Corticosterone secretion M.E.D.” value [5] of the same molecule?
A: The value was > 2.5 mg/kg.

Q: And the ED50 [5]?
A: Its ED50 is > 10 mg/kg.

Q: With c1ccc2c(c1)CC(N1CCN(c3cccc4c3OCCO4)CC1)C2 [Example 7, 4-(benzodioxan-5-yl)-1-(indan-2-yl)-piperazine] as the molecule, how does the “Hypothermia M.E.D.” value [1] read?
A: Its value is 20.0 mg/kg.

Q: What about the ED50 [1] of the same molecule?
A: Its ED50 is 1.6 mg/kg.

Q: What about the “Spontaneous tail flicks M.E.D.” value [2] of the same molecule?
A: Its value is > 10.0 mg/kg.

Q: And the ED50 [2]?
A: Its ED50 is 0.74 mg/kg.

Q: And the ED50 [4, 7]?
A: Its ED50 is 0.52 mg/kg.

Q: And the ED50 [4, 8]?
A: Its ED50 is > 10 mg/kg.

Q: And the “Affinity (pKi)” value [6]?
A: Its value is 8.75.

Q: What about the “Corticosterone secretion M.E.D.” value [5] of the same molecule?
A: The value was > 10.0 mg/kg.

Q: What about the ED50 [5] of the same molecule?
A: The ED50 was 2.5 mg/kg.

Q: Which results are given for c1ccc2c(c1)CC(N1CCN(c3cccc4c3OCCCO4)CC1)C2 [Example 9, 4-[benzo(1,5)dioxepin-6-yl]-1-(indan-2-yl)-piperazine]?
A: Hypothermia M.E.D. [1]: 5.0 mg/kg; ED50 [1]: 4.36 mg/kg; Spontaneous tail flicks M.E.D. [2]: > 10.0 mg/kg; ED50 [2]: 1.59 mg/kg; ED50 [4, 7]: < 2.5 mg/kg; ED50 [4, 8]: > 2.5 mg/kg; Affinity (pKi) [6]: 8.42; Corticosterone secretion M.E.D. [5]: > 2.5 mg/kg; ED50 [5]: > 2.5 mg/kg

From US5194437A, “1,4-disubstituted piperazines” (Adir et Compagnie, priority 1990, dated 1993)
